Converted amounts (≈) assume the structure as drawn.
Columns and labels:
Bacillus subtilis = test: Antibacterial activity against Bacillus subtilis ATCC 6633 measured after 48 hrs by resazurin reagent based assay; format: functional
Staphylococcus aureus = test: Antibacterial activity against Staphylococcus aureus ATCC 25923 measured after 48 hrs by resazurin reagent based assay; format: functional
Candida albicans = test: Antifungal activity against Candida albicans ATCC 10231 measured after 48 hrs by bromocresol green reagent based assay; format: functional
Saccharomyces cerevisiae = test: Antifungal activity against Saccharomyces cerevisiae ATCC 9763 measured after 48 hrs by bromocresol green reagent based assay; format: functional
[1] = Cytotoxicity against mouse NS-1 cells incubated for 96 hrs by resazurin dye based assay; format: functional
[2] = Cytotoxicity against human NFF cells incubated for 96 hrs by resazurin dye based assay; format: toxicity, cell-based; settings: read-out: MIC
Tritrichomonas foetus = test: Anti-protozoal activity against Tritrichomonas foetus KV-1 measured after 72 hrs under anaerobic conditions; format: functional
Giardia intestinalis = test: Antiparasitic activity against Giardia duodenalis WB-1B 713 assessed as parasite growth inhibition measured after 96 hrs under anaerobic conditions; format: functional

SMILES: C[C@@H]1c2c([C@@]3(C)CCCC(C)(C)C3)ccc(C(=O)O)c2C(=O)N1CC(=O)O
- MIC (Bacillus subtilis): > 100 µg/mL
- MIC (Staphylococcus aureus): > 100 µg/mL
- MIC (Candida albicans): > 200 µg/mL
- MIC (Saccharomyces cerevisiae): > 200 µg/mL
- MIC [1]: > 100 µg/mL
- MCC at 96 h [2]: > 100 µg/mL
- MIC (Tritrichomonas foetus): > 100 µg/mL
- MIC (Giardia intestinalis): 100 µg/mL (≈ 268 µM)

SMILES: CN(CC[C@H](N)CC(=O)N[C@H]1C=C[C@H](n2ccc(N)nc2=O)O[C@@H]1C(=O)O)C(=N)N.Cl
- MIC (Candida albicans): > 200 µg/mL
- MIC (Saccharomyces cerevisiae): 3.1 µg/mL

SMILES: C[C@H]1c2c([C@@]3(C)CCCC(C)(C)C3)ccc(C(=O)O)c2C(=O)N1CC(=O)O
- MIC (Bacillus subtilis): > 100 µg/mL
- MIC (Staphylococcus aureus): > 100 µg/mL
- MIC (Candida albicans): > 200 µg/mL
- MIC (Saccharomyces cerevisiae): > 200 µg/mL
- MIC [1]: > 100 µg/mL
- MCC at 96 h [2]: > 100 µg/mL
- MIC (Tritrichomonas foetus): > 100 µg/mL
- MIC (Giardia intestinalis): 50 µg/mL (≈ 134 µM)

SMILES: Cc1ncc([N+](=O)[O-])n1CCO [METRONIDAZOLE]
- MIC (Tritrichomonas foetus): 0.2 µg/mL (≈ 1.17 µM)
- MIC (Giardia intestinalis): 0.3 µg/mL (≈ 1.75 µM)

SMILES: CSC[S@@+]([O-])CC(CO)NC(=O)/C=C/c1c(C)[nH]c(=O)[nH]c1=O (some centres undefined) [SPARSOMYCIN]
- MIC [1]: 0.6 µg/mL (≈ 1.66 µM)
- MCC at 96 h [2]: 0.6 µg/mL

SMILES: CN(C)[C@@H]1C(O)=C(C(N)=O)C(=O)[C@@]2(O)C(O)=C3C(=O)c4c(O)cccc4[C@@](C)(O)[C@H]3C[C@@H]12 [TETRACYCLINE]
- MIC (Bacillus subtilis): 6.3 µg/mL (≈ 14.2 µM)
- MIC (Staphylococcus aureus): 12.5 µg/mL (≈ 28.1 µM)
